Source: publication PMC2905049 (Bioorganic & medicinal chemistry, 2010)

Tests used:
[1] = test system: MT-2 cell line; experiment: Compound toxicity by XTT in mock-infected MT-2 cells; format: cell-based; settings: Homo sapiens, MT2
[2] = test system: HIV-1IIIB; experiment: Anti-HIV replication assay against wild-type HIV-1IIIB in MT-2 cell line; format: cell-based; settings: for EC50 (μM): HIV-1IIIB replication in MT-2 cell line; for EC50: Human immunodeficiency virus 1, MT2
[3] = test system: HIV-1NL4-3; experiment: Anti-HIV replication assay against HIV-1NL4-3 in MT-4 cell line; format: cell-based; settings: for EC50: Human immunodeficiency virus 1, MT4, read-out: HIV-1NL4-3 EC50 (μM); for EC50 (μM): HIV-1NL4-3, MT-4 cell line, Table 3 screening, 9 as control
[4] = test system: RTMDR (multi-RT inhibitor-resistant strain); experiment: Anti-HIV replication assay against RTMDR strain in MT-4 cell line; format: cell-based, HIV-1; settings: Human immunodeficiency virus 1, MT4, read-out: RTMDR EC50 (μM)

Compound | EC50 (μM) ([2]; Table 1) | EC50 [2] [µM] | EC50 [3] [µM] | EC50 [4] [µM] | further results
Cc1cn([C@H]2C[C@H](N=[N+]=[N-])[C@@H](CO)O2)c(=O)[nH]c1=O [AZT, zidovudine, reference compound] |  |  |  |  | IC50 [1]: 1870 µM; TI ([2]; therapeutic index IC50/EC50, HIV-1IIIB, MT-2, Table 1): 42700
CCc1cc(=O)c2ccc3c(c2o1)[C@@H](OC(=O)[C@@]12CC[C@@](C)(C(=O)O1)C2(C)C)[C@@H](OC(=O)[C@@]12CC[C@@](C)(C(=O)O1)C2(C)C)C(C)(C)O3 [Compound 3, reference compound] |  |  |  |  | HIV-1NL4-3 TI ([3]; therapeutic index IC50/EC50, MT-4, Table 2 screening): 116
CC(=O)c1ccc2c(c1C)[C@@H](OC(=O)[C@@]13CC[C@@](C)(C(=O)O1)C3(C)C)[C@@H](OC(=O)[C@@]13CC[C@@](C)(C(=O)O1)C3(C)C)C(C)(C)O2 [Compound 4, 3R,4R-Dicamphanoyloxy-2,2,5-trimethyl-6-acetyl-2H-chroman] | did not show anti-HIV activity | > 20 |  |  | 
CCOc1c(C(C)=O)ccc2c1[C@@H](OC(=O)[C@@]13CC[C@@](C)(C(=O)O1)C3(C)C)[C@@H](OC(=O)[C@@]13CC[C@@](C)(C(=O)O1)C3(C)C)C(C)(C)O2 [Compound 5] | moderate activity |  |  |  | 
Cc1cc(=O)oc2cc(OC(C)(C)[C@@H](COC(=O)[C@@]34CC[C@@](C)(C(=O)O3)C4(C)C)OC(=O)[C@@]34CC[C@@](C)(C(=O)O3)C4(C)C)ccc12 [Compound 6, 7-(2R,3-Di-O-(−)-camphanoyloxy-1,1-dimethylpropoxy)-4-methyl-2H-chromen-2-one] |  | > 20 | > 20 | > 20 | 
Cc1cc(=O)oc2c([C@H](COC(=O)[C@@]34CC[C@@](C)(C(=O)O3)C4(C)C)OC(=O)[C@@]34CC[C@@](C)(C(=O)O3)C4(C)C)c(OC(C)C)ccc12 [Compound 7, 8-(1R,2-Di-O-(−)-camphanoyloxyethyl)-7-isopropoxy-4-methyl-2H-chromen-2-one] |  | > 20 | > 20 | > 20 | 
Cc1cc(=O)oc2c([C@H](C)OC(=O)[C@@]34CC[C@@](C)(C(=O)O3)C4(C)C)c(OC(C)C)ccc12 [Compound 8] | lost anti-HIV activity completely | > 20 | > 20 | > 20 | 
Cc1cc(=O)oc2c(CSC(=O)[C@@]34CC[C@@](C)(C(=O)O3)C4(C)C)c(OC(C)C)ccc12 [Compound 13] |  |  |  |  | EC50 (μM) [3]: moderate activity
COc1ccc(N(Cc2c(OC(C)C)ccc3c(C)cc(=O)oc23)C(=O)[C@@]23CC[C@@](C)(C(=O)O2)C3(C)C)cc1 [Compound 16, 8-[(N-4-Methoxyphenyl-N-(−)-camphanoyl)aminomethyl]-7-isopropoxy-4-methyl-2H-chromen-2-one] |  |  |  |  | EC50 (μM) [3]: moderate activity
